In series [1] the test system is brain aromatase. The series can be described thus: PET studies in baboons (brain imaging). The format is in vivo, baboon. As for the experimental part: PET Studies in Baboons: All animal studies were reviewed and approved by the Brookhaven Institutional Animal Care and Use Committee. […] Baboons were anesthetized with ketamine (10 mg/kg) and then intubated and ventilated with a mixture of isoflurane (Forane, 1-4%) and nitrous oxide (1500 mL/min) and oxygen (800 mL/min). Animals were transported to and from the PET facility in a temperature controlled transfer cage and a member of the staff attended them while they recovered from anesthesia. Catheters were inserted in a popliteal artery and radial arm vein for arterial sampling a radiotracer injection respectively. Dynamic PET imaging was carried out on a Siemen's HR+ high resolution, whole body PET scanner (4.5×4.5×4.8 mm at center of field of view) in 3D acquisition mode, 63 planes. A transmission scan was obtained with a ^68Ge rotating rod source before the emission scan to correct for attenuation before each radiotracer injection. […] Dynamic scanning was carried out for 90 minutes with the following time frames (1×10 sec; 12×5 sec; 1×20 sec; 1×30 sec; 8×60 sec; 4×300 sec; 8×450 sec). […] During the PET scan, baboons were monitored for heart rate, respiration rate, PO2 and temperature. Animals were allowed 4 weeks between studies to recover from anesthesia and blood sampling.
Image Analysis: Time frames were summed over the 90 minute experimental period. Regions of interest were placed over the amygdala, the preoptic area, frontal cortex, cerebellum and thalamus on the summed image and then projected onto the dynamic images to obtain time activity curves. Regions occurring bilaterally were averaged. Carbon-11 concentration in each region of interest was divided by the injected dose to obtain the % dose/cc. The summed PET images from one baboon was co-registered with a 3D MR image of the same animal using PMOD (PMOD Technologies, Ltd.).

Series [2] in a line: Plasma analysis for fraction of 11C-isomers (unchanged parent tracer by HPLC). Conditions: baboon plasma. The class given is in vivo. The protocol:
Plasma analysis for fraction of ^11C-isomers: Plasma samples at 1, 5, 10, 30 and 60 min were analyzed by HPLC to determine the percent of residual parent tracer. Plasma samples from selected time points were added to 300 μL acetonitrile containing an appropriate amount of standard, then subjected to cell disruption using a Polytron (Brinkmann Instruments), centrifuged for 4 minutes and decanted into 300 μL water. HPLC conditions were 60:40 0.1 M ammonium formate:acetonitrile, Waters μBondapak column (3.9×300 mm), flow 1.3 mL/min, UV detection at 254 nm. Supernatants were injected onto the column, reserving a measured amount to determine recovery of injected activity from the column. […] Five fractions were collected from each injection, 3 before the parent peak, the parent peak, and finally the tail of the parent peak. The percent unchanged tracer was determined by dividing the sum of the last 2 peaks by the sum of all HPLC fractions.

Series [3] concerns brain aromatase enzymes. As to conditions: Kil et al. (2008); cited from earlier work.

With `[11CH3]n1nc2ccc(C(c3ccc(Cl)cc3)n3cncn3)cc2n1` (stereo not drawn) [N-2 isomer], in series [1] (baboon brain), the “distribution to aromatase-rich brain regions” value is recorded as “no specific distribution to aromatase-rich brain regions”. The “PET image uptake in amygdala and preoptic area” value in series [1] (baboon brain, images summed 15-90 min after injection, FIG. 3) is “no specific uptake in amygdala and preoptic area”. Also, in series [2], the “appearance of labeled metabolites in plasma” value is given as “very rapid appearance of labeled metabolites” and the “disappearance of parent labeled compound from plasma” value was “rapid rate of disappearance of the parent labeled compound from plasma”.

Take `N#Cc1ccc(C(c2ccc(C#N)cc2)n2cncn2)cc1` [[^11C]letrozole]: in series [3], the “blocking of uptake by pretreatment with unlabeled letrozole” value is “failed to block uptake”; the “brain uptake and clearance” value is “rapidly taken up in the brain and was then rapidly cleared”.

On to `N#Cc1ccc(C(c2ccc(C#N)cc2)n2cncn2)cc1` [letrozole, reference compound], for which the “effect of pretreatment on [N-methyl-11C]vorozole accumulation in brain” value in series [1] (blocking dose 0.1 mg/kg, 5 min prior, baboon) is “reduced [N-methyl-^11C]vorozole accumulation in all brain regions examined”.

The record behind these values is patent US8802053B2 (Brookhaven Science Associates, LLC, priority 2009, dated 2014).
